Source: US5441941A, “1,2-dihydroellipticines with activity against CNS specific cancer” (The United States of America as represented by the …, priority 1993, dated 1995)

What was measured:
UO-31 = experiment: NCI in vitro screen, SRB percent growth, Renal Cancer
OVCAR-3 = experiment: NCI in vitro screen, SRB percent growth, Ovarian Cancer
SW-620 = experiment: cells; conditions: Homo sapiens
NCI-H23 = experiment: NCI in vitro screen, SRB percent growth, Non-Small Cell Lung Cancer
Human tumor cell lines = experiment: NCI in vitro screen, overall result; conditions: Tables I and II
MOLT-4 = experiment: cells; conditions: Homo sapiens
HCC-2998 = experiment: cells; conditions: Homo sapiens
LXFL 529 = experiment: cells; conditions: Homo sapiens
CCRF-CEM = experiment: NCI in vitro screen, SRB percent growth, Leukemia
SNB-78 = experiment: NCI in vitro screen, SRB percent growth, CNS Cancer
KM12 = experiment: NCI in vitro screen, SRB percent growth, Colon Cancer
UACC-257 = experiment: NCI in vitro screen, SRB percent growth, Melanoma
SK-OV-3 = experiment: NCI in vitro screen, SRB percent growth, Ovarian Cancer
SNB-75 = experiment: NCI in vitro screen, SRB percent growth, CNS Cancer
DLD-1 = experiment: cells; conditions: Homo sapiens
SF-268 = experiment: NCI in vitro screen, SRB percent growth, CNS Cancer
EKVX = experiment: cells; conditions: Homo sapiens
[1] = Log10 Concentration -4.0, 100 µM
[2] = Log10 Concentration -7.0, 0.1 µM
[3] = SW-620, read-out: Percent Growth
[4] = MOLT-4, read-out: Percent Growth
[5] = HCC 2998, read-out: Percent Growth
[6] = LXFL 529, read-out: Percent Growth
[7] = DLD-1, read-out: Percent Growth

Cc1ccc2[nH]c3c(C)c4c(c(C)c3c2c1)CN(C)C=C4 [Formula XI]
Percent Growth (UO-31; [1]): -94%
Percent Growth (UO-31; Log10 Concentration -5.0): 36%
Percent Growth (UO-31; Log10 Concentration -6.0, 1 µM): 72%
Percent Growth (UO-31; [2]): 76%
Percent Growth (UO-31; Log10 Concentration -8.0): 103%
TGI (UO-31; PG=0): 18.8 µM
GI50 (UO-31; PG=+50): 3.99 µM
CC50 (UO-31; read-out: LC-50, PG=-50): 45.7 µM
Percent Growth (OVCAR-3; [1]): -91%
Percent Growth (OVCAR-3; Log10 Concentration -5.0): 5%
Percent Growth (OVCAR-3; Log10 Concentration -6.0, 1 µM): 76%
Percent Growth (OVCAR-3; [2]): 94%
Percent Growth (OVCAR-3; Log10 Concentration -8.0): 98%
TGI (OVCAR-3; PG=0): 11.3 µM
GI50 (OVCAR-3; PG=+50): 2.34 µM
CC50 (OVCAR-3; read-out: LC-50, PG=-50): 37.6 µM
GI50 (SW-620; SW-620): 0.279 µM
CC50 (SW-620; SW-620, read-out: LC-50): 28.6 µM
activity at 0.01 µM (SW-620; [3]): 89%
activity at 0.1 µM (SW-620; [3]): 76%
activity at 1 µM (SW-620; [3]): 18%
activity at 10 µM (SW-620; [3]): -21%
activity at 100 µM (SW-620; [3]): -85%
IC (TGI) (SW-620; SW-620, read-out: TGI): 2.87 µM
Percent Growth (NCI-H23; [1]): -85%
Percent Growth (NCI-H23; Log10 Concentration -5.0): -75%
Percent Growth (NCI-H23; Log10 Concentration -6.0, 1 µM): 42%
Percent Growth (NCI-H23; [2]): 97%
Percent Growth (NCI-H23; Log10 Concentration -8.0): 95%
TGI (NCI-H23; PG=0): 2.29 µM
GI50 (NCI-H23; PG=+50): 0.668 µM
CC50 (NCI-H23; read-out: LC-50, PG=-50): 6.15 µM
effect against many kinds of cancer (Human tumor cell lines): effective against many kinds of cancer
GI50 (MOLT-4; MOLT-4): 2.14 µM
CC50 (MOLT-4; MOLT-4, read-out: LC-50): > 100 µM
activity at 0.01 µM (MOLT-4; [4]): 104%
activity at 0.1 µM (MOLT-4; [4]): 101%
activity at 1 µM (MOLT-4; [4]): 68%
activity at 10 µM (MOLT-4; [4]): 14%
activity at 100 µM (MOLT-4; [4]): -50%
IC (TGI) (MOLT-4; MOLT-4, read-out: TGI): 16.5 µM
GI50 (HCC-2998; HCC 2998): 1.69 µM
CC50 (HCC-2998; HCC 2998, read-out: LC-50): 7.89 µM
activity at 0.01 µM (HCC-2998; [5]): 105%
activity at 0.1 µM (HCC-2998; [5]): 108%
activity at 1 µM (HCC-2998; [5]): 84%
activity at 10 µM (HCC-2998; [5]): -65%
activity at 100 µM (HCC-2998; [5]): -91%
IC (TGI) (HCC-2998; HCC 2998, read-out: TGI): 3.65 µM
GI50 (LXFL 529; LXFL 529): 0.353 µM
CC50 (LXFL 529; LXFL 529, read-out: LC-50): 9.23 µM
activity at 0.01 µM (LXFL 529; [6]): 78%
activity at 0.1 µM (LXFL 529; [6]): 68%
activity at 1 µM (LXFL 529; [6]): 35%
activity at 10 µM (LXFL 529; [6]): -53%
activity at 100 µM (LXFL 529; [6]): -84%
IC (TGI) (LXFL 529; LXFL 529, read-out: TGI): 2.51 µM
Percent Growth (CCRF-CEM; [1]): -35%
Percent Growth (CCRF-CEM; Log10 Concentration -5.0): 13%
Percent Growth (CCRF-CEM; Log10 Concentration -6.0, 1 µM): 74%
Percent Growth (CCRF-CEM; [2]): 94%
Percent Growth (CCRF-CEM; Log10 Concentration -8.0): 102%
TGI (CCRF-CEM; PG=0): 18 µM
GI50 (CCRF-CEM; PG=+50): 2.48 µM
CC50 (CCRF-CEM; read-out: LC-50, PG=-50): > 100 µM
Percent Growth (SNB-78; [1]): -75%
Percent Growth (SNB-78; Log10 Concentration -5.0): -33%
Percent Growth (SNB-78; Log10 Concentration -6.0, 1 µM): 38%
Percent Growth (SNB-78; [2]): 128%
Percent Growth (SNB-78; Log10 Concentration -8.0): 131%
TGI (SNB-78; PG=0): 3.41 µM
GI50 (SNB-78; PG=+50): 0.738 µM
CC50 (SNB-78; read-out: LC-50, PG=-50): 25.2 µM
Percent Growth (KM12; [1]): -93%
Percent Growth (KM12; Log10 Concentration -5.0): -48%
Percent Growth (KM12; Log10 Concentration -6.0, 1 µM): 38%
Percent Growth (KM12; [2]): 95%
Percent Growth (KM12; Log10 Concentration -8.0): 97%
TGI (KM12; PG=0): 2.78 µM
GI50 (KM12; PG=+50): 0.622 µM
CC50 (KM12; read-out: LC-50, PG=-50): 11 µM
Percent Growth (UACC-257; [1]): -87%
Percent Growth (UACC-257; Log10 Concentration -5.0): -8%
Percent Growth (UACC-257; Log10 Concentration -6.0, 1 µM): 86%
Percent Growth (UACC-257; [2]): 90%
Percent Growth (UACC-257; Log10 Concentration -8.0): 97%
TGI (UACC-257; PG=0): 8.23 µM
GI50 (UACC-257; PG=+50): 2.43 µM
CC50 (UACC-257; read-out: LC-50, PG=-50): 34.3 µM
Percent Growth (SK-OV-3; [1]): -58%
Percent Growth (SK-OV-3; Log10 Concentration -5.0): -16%
Percent Growth (SK-OV-3; Log10 Concentration -6.0, 1 µM): 36%
Percent Growth (SK-OV-3; [2]): 59%
Percent Growth (SK-OV-3; Log10 Concentration -8.0): 87%
TGI (SK-OV-3; PG=0): 4.87 µM
GI50 (SK-OV-3; PG=+50): 0.25 µM
CC50 (SK-OV-3; read-out: LC-50, PG=-50): 63.3 µM
Percent Growth (SNB-75; [1]): -97%
Percent Growth (SNB-75; Log10 Concentration -5.0): -72%
Percent Growth (SNB-75; Log10 Concentration -6.0, 1 µM): 20%
Percent Growth (SNB-75; [2]): 109%
Percent Growth (SNB-75; Log10 Concentration -8.0): 110%
TGI (SNB-75; PG=0): 1.66 µM
GI50 (SNB-75; PG=+50): 0.462 µM
CC50 (SNB-75; read-out: LC-50, PG=-50): 5.75 µM
GI50 (DLD-1; DLD-1): 1.48 µM
CC50 (DLD-1; DLD-1, read-out: LC-50): 59 µM
activity at 0.01 µM (DLD-1; [7]): 102%
activity at 0.1 µM (DLD-1; [7]): 93%
activity at 1 µM (DLD-1; [7]): 58%
activity at 10 µM (DLD-1; [7]): 13%
activity at 100 µM (DLD-1; [7]): -69%
IC (TGI) (DLD-1; DLD-1, read-out: TGI): 14.5 µM
Percent Growth (SF-268; [1]): -83%
Percent Growth (SF-268; Log10 Concentration -5.0): -94%
Percent Growth (SF-268; Log10 Concentration -6.0, 1 µM): -39%
Percent Growth (SF-268; [2]): 96%
Percent Growth (SF-268; Log10 Concentration -8.0): 101%
TGI (SF-268; PG=0): 0.514 µM
GI50 (SF-268; PG=+50): 0.218 µM
CC50 (SF-268; read-out: LC-50, PG=-50): 1.6 µM
GI50 (EKVX): 3.6 µM
activity at 0.01 µM (EKVX; read-out: Percent Growth): 109%
activity at 0.1 µM (EKVX; read-out: Percent Growth): 114%
activity at 1 µM (EKVX; read-out: Percent Growth): 86%
activity at 10 µM (EKVX; read-out: Percent Growth): 22%
activity at 100 µM (EKVX; read-out: Percent Growth): -22%
IC (TGI) (EKVX; read-out: TGI): 31.2 µM
